Assay [1] concerns the target T1, Deoxyribonuclease-1 (Homo sapiens, UniProt P24855).
T1 sequence (P24855 whole entry): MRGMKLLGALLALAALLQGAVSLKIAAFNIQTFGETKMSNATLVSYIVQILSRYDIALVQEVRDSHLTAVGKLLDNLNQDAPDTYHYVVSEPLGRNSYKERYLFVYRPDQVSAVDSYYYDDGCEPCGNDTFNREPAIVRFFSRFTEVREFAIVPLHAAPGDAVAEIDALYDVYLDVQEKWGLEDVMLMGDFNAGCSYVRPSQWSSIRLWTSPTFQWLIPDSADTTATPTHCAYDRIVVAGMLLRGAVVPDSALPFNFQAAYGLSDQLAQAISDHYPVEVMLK
The experiment in a line: Inhibition of DNase 1 (unknown origin).

In assay [2] the target is T1, Deoxyribonuclease-1. The experiment in a line: Inhibition of DNase 1 (unknown origin) using (FAM)-labeled dsDNA as substrate.

Each structure is given as a SMILES string.

As usually defined, the IC50 is the concentration needed to halve the response being measured. Low readings indicate higher potency, high ones lower potency. `O=C(O)c1ccc(Nc2nc(Cl)nc(Cl)n2)cc1-c1c2ccc(=O)cc-2oc2cc(O)ccc12` displayed an IC50 against Deoxyribonuclease-1 [1] greater than 300000 nM. In turn, `CN(C)c1ccc(C(=C2C=CC(=[N+](C)C)C=C2)c2ccc(N(C)C)cc2)cc1` [GENTIAN VIOLET] returned an IC50 on Deoxyribonuclease-1 [2] of 350 nM.

Values taken from ChEMBL document CHEMBL3352007, “Deoxyribonuclease inhibitors” (Eur J Med Chem, 2014).
